Source: ChEMBL document CHEMBL1133568 (J Med Chem, 2000)
Activity calls are given as the source filed them. The rule behind the calls is not given here.

Columns and labels:
[1] = target: T1, Androgen receptor (Rattus norvegicus) (UniProt P15207); experiment: Relative binding affinity against androgen (AR) receptor of rat after 24 hr incubation as percent binding compared to R1881
T1 sequence (whole entry): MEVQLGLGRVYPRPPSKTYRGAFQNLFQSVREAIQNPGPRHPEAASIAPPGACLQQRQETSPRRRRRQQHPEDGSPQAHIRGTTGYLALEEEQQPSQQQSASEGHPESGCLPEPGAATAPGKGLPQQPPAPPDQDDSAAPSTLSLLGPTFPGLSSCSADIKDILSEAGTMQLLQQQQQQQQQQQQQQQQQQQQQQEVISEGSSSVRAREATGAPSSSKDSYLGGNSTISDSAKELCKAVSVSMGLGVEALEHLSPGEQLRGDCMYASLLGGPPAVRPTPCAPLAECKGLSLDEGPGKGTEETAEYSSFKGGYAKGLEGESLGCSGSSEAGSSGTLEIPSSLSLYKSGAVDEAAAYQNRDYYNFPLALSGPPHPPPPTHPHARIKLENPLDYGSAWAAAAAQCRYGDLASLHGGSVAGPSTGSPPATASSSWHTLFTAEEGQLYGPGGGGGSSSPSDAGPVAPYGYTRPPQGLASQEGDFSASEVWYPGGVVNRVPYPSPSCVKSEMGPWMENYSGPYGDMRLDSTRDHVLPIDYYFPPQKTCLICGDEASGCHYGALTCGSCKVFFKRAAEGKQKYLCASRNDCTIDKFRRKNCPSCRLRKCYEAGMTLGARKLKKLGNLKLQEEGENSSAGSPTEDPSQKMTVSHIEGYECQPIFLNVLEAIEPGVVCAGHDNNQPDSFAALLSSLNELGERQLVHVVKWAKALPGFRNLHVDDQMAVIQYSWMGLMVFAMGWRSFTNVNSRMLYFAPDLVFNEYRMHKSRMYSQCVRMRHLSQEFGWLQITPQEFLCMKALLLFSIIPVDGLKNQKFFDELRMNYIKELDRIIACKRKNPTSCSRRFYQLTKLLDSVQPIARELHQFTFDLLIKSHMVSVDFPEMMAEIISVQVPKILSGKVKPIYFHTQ

[2] = target: T2, Glucocorticoid receptor (Rattus norvegicus) (UniProt P06536); experiment: Relative binding affinity against Glucocorticoid receptor of rat after 2 hr incubation as percent binding compared to Dexamethasone
T2 sequence (whole entry): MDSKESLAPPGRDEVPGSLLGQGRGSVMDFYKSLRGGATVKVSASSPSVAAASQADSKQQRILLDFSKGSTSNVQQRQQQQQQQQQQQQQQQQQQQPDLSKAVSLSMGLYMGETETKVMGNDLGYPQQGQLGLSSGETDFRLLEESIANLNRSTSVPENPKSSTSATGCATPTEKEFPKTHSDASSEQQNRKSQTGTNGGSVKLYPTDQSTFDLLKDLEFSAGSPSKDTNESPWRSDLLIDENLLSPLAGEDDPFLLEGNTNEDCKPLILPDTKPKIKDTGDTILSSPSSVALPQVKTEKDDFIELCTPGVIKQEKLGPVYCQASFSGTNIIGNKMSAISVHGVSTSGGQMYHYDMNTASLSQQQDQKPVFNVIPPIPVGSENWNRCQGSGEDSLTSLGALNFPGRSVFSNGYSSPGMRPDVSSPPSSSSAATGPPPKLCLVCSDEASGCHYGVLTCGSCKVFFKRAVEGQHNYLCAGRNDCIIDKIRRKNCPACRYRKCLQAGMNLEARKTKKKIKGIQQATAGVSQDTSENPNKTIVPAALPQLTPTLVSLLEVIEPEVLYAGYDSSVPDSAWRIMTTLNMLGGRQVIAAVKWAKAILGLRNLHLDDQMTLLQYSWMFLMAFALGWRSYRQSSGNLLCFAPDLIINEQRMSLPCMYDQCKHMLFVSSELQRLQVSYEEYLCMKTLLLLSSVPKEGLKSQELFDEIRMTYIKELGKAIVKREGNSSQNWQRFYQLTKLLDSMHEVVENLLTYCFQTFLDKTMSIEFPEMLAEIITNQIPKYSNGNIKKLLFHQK

[3] = target: T3, Progesterone receptor (Homo sapiens, UniProt P06401); experiment: In vitro antagonist potency in transactivation assay in neuroblastoma cells expressing human PR-A progesterone receptor; type: functional, cell-based
T3 sequence (P06401 whole entry): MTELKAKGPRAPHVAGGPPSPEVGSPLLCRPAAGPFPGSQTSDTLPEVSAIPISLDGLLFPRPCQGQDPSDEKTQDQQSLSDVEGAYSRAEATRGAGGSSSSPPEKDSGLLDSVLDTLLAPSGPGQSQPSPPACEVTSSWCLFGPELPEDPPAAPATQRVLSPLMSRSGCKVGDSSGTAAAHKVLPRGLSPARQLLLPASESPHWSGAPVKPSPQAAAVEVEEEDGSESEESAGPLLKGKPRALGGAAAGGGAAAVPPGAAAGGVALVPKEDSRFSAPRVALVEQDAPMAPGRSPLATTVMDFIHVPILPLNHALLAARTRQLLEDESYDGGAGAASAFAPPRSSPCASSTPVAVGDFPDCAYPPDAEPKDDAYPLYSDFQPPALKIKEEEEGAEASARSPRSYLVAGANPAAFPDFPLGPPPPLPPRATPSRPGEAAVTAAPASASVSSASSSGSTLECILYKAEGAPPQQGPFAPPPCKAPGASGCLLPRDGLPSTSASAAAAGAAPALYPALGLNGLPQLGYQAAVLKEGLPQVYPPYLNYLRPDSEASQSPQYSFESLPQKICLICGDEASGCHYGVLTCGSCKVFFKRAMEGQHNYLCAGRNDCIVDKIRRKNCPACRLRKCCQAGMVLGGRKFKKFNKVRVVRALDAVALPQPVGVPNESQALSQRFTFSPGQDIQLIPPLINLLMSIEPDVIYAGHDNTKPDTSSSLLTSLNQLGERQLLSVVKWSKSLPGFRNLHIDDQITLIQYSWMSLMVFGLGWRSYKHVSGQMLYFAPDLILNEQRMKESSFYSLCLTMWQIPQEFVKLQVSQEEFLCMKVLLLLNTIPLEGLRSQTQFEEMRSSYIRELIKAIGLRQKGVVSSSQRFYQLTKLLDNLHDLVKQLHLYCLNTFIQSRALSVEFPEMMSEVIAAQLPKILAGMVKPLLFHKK

[4] = target: T4, Androgen receptor (Homo sapiens, UniProt P10275); experiment: In vitro antagonist potency in transactivation assay in CV-1 cells expressing androgen receptor; type: functional, cell-based
T4 sequence (P10275 whole entry): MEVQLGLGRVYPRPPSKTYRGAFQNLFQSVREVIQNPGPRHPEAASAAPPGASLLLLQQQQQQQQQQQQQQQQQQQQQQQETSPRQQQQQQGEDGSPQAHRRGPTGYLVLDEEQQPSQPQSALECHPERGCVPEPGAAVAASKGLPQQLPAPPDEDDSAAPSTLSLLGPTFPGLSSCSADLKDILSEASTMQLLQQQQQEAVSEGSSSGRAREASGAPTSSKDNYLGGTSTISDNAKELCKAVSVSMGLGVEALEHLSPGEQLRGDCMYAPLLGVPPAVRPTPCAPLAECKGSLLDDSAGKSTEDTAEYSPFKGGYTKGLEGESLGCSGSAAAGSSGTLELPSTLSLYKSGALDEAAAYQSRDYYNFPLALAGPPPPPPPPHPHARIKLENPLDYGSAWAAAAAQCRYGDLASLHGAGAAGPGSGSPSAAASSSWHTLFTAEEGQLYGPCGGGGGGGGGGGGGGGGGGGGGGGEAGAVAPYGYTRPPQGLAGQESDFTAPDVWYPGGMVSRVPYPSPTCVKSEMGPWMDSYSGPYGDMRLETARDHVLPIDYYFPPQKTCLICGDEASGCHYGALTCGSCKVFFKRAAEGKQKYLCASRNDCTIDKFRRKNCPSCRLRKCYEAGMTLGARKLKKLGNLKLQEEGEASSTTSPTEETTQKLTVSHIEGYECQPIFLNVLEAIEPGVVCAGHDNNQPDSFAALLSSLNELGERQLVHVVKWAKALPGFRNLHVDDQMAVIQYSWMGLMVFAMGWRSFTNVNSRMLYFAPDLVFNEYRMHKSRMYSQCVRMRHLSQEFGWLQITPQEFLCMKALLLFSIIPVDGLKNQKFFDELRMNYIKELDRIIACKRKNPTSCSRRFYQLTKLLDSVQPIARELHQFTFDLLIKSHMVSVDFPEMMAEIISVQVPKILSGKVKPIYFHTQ

[5] = target: T3, Progesterone receptor; experiment: In vitro antagonist potency in transactivation assay in neuroblastoma cells expressing human PR-B progesterone receptor; type: functional, cell-based
[6] = target: T5, Glucocorticoid receptor (Mus musculus, UniProt P06537); experiment: In vitro antagonist potency in transactivation assay in NIH3T3 cells expressing glucocorticoid receptor; type: functional, cell-based
T5 sequence (P06537 whole entry): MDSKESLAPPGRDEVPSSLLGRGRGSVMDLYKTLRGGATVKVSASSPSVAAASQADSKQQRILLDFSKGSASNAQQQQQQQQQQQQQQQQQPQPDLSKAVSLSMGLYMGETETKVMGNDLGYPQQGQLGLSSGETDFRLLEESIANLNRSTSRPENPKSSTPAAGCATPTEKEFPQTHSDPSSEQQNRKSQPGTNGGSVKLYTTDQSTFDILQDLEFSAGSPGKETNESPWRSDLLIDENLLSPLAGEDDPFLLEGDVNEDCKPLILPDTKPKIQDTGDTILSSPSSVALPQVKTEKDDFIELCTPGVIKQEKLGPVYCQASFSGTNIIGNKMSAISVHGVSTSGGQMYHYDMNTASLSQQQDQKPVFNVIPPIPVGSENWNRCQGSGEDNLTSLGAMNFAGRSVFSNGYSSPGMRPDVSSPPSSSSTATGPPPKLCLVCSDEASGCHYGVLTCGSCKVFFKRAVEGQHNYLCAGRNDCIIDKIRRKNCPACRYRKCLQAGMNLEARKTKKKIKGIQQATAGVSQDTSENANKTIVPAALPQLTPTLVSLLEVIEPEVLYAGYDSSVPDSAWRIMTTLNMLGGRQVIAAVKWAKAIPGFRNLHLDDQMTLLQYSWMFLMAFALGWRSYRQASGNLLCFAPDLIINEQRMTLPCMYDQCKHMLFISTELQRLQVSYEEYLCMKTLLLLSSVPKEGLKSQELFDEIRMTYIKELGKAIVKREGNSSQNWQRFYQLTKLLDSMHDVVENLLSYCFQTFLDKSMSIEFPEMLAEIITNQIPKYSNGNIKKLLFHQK

[7] = organism: Oryctolagus cuniculus; experiment: Relative binding affinity against rabbit progesterone (PR) receptor after 24 hr incubation as perent binding compared to progesterone
[8] = target: T6, Progesterone receptor (Rattus norvegicus) (UniProt Q63449); experiment: Full abortifacient effect at 0.03 mg/animal/day in pregnant rats; type: functional
T6 sequence (whole entry): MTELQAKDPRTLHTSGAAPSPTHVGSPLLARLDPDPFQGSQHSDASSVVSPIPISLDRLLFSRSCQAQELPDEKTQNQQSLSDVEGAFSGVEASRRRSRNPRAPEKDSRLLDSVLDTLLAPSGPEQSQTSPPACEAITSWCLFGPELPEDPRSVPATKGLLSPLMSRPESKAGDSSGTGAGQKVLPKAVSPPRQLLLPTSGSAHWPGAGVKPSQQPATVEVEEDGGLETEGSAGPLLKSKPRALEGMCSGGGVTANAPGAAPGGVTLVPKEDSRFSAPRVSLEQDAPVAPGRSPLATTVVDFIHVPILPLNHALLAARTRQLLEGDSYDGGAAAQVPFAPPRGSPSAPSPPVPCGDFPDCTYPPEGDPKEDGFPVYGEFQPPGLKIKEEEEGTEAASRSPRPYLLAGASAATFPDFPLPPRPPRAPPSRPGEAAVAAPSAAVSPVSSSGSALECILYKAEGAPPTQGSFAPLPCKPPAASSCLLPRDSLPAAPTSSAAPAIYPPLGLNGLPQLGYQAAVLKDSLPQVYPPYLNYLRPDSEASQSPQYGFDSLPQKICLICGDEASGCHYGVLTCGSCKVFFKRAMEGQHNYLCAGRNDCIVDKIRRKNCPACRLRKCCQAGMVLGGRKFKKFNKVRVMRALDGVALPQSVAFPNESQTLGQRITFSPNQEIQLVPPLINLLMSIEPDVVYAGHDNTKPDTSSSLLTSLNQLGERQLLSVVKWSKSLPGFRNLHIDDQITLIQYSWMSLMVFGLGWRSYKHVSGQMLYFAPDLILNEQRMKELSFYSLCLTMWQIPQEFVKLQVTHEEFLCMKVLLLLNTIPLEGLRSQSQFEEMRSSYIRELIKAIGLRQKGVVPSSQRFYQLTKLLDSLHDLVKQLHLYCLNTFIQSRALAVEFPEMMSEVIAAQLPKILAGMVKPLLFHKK

[9] = target: T6, Progesterone receptor (Rattus norvegicus); experiment: Full abortifacient effect at 0.1 mg/animal/day in pregnant rats; type: functional
[10] = target: T6, Progesterone receptor (Rattus norvegicus); experiment: Full abortifacient effect at 0.3 mg/animal/day in pregnant rats; type: functional
[11] = target: T6, Progesterone receptor (Rattus norvegicus); experiment: Incomplete abortifacient effect at 0.03 mg/animal/day in pregnant rats; type: functional
[12] = target: T6, Progesterone receptor (Rattus norvegicus); experiment: Incomplete abortifacient effect at 0.1 mg/animal/day in pregnant rats; type: functional
[13] = target: T6, Progesterone receptor (Rattus norvegicus); experiment: Incomplete abortifacient effect at 0.3 mg/animal/day in pregnant rats; type: functional
[14] = target: T1, Androgen receptor (Rattus norvegicus)
Description: Antiandrogenic activity in orchidectomized young male rats after oral administration

[15] = target: T2, Glucocorticoid receptor (Rattus norvegicus)
Description: Antiglucocorticoid activity in adrenalectomized young male rats after oral administration

[16] = target: T7, Progesterone receptor (Homo sapiens) (UniProt P06401)
T7 sequence (whole entry): T3 sequence (P06401 whole entry)
Description: In vitro agonist potency in transactivation assay of neuroblastoma cells expressing human PR-B progesterone receptor; NE=no effect

[17] = target: T7, Progesterone receptor (Homo sapiens); remark: listed apart in the source
[18] = target: T8, Glucocorticoid receptor (Mus musculus) (UniProt P06537); details: NIH3T3
T8 sequence (whole entry): T5 sequence (P06537 whole entry)
Description: In vitro agonist potency in transactivation assay in NIH3T3 cells expressing glucocorticoid receptor; NE=no effect

RBA [1] | RBA [2] | IC50 [3] | IC50 [4] | IC50 [5] | IC50 [6] | RBA [7] | Abortion [8] | Abortion [9] | Abortion [10] | Abortion [11] | Abortion [12] | Abortion [13] | ED50 mg/animal/day [14] | ED50 mg/animal/day [15] | NE [16] | NE [17] | NE [18] | Compound
3.1% | 22.2% | 0.0036 nM | 54 nM | 0.0025 nM | 16 nM | 140% | 0% | 83% | 100% | 0% | 17% | 0% | 1.3 | 2 | – | – | – | CC(=O)c1ccc([C@H]2C[C@@]3(C)[C@@H](CC[C@@]3(O)C(F)(F)C(F)(F)F)[C@@H]3CCC4=CC(=O)CCC4=C32)cc1 [LONAPRISAN]
– | – | – | – | – | 2.2 nM | – | – | – | – | – | – | – | – | – | inactive | inactive | inactive | CC#C[C@]1(O)CC[C@H]2[C@@H]3CCC4=CC(=O)CCC4=C3[C@@H](c3ccc(N(C)C)cc3)C[C@@]21C [MIFEPRISTONE]
